ChEMBL document CHEMBL5729292, “Bromodomain inhibitor compound and use thereof” (2022)

Target: Bromodomain-containing protein 4 (Homo sapiens, UniProt O60885)
Experiment: Inhibitory Activity Assay of BRD4 Small Molecule Compounds: AlphaScreen kit (Perkin Elmer) was used to detect effect of the compounds on binding of BRD4 bromodomain to acetylated histone H4 polypeptide. […] Each of fusion proteins containing (His)6tag can be recognized and bound by Ni2+. […] The donor microbeads were coated with streptavidin and can bind to biotinylated acetylated H4 polypeptide. The acceptor microbeads were coated with Ni2+ ions and can bind to the BD1 protein with (His)6tag. When the BD1 protein recognized the acetylated H4 polypeptide, the donor microbeads and the acceptor microbeads can be brought closer to a certain distance. Within this range, the donor microbeads can produce singlet oxygen after being irradiated with a 680 nm excitation light, and transfer the singlet oxygen to the acceptor microbeads. After a series of cascade chemical reactions, the acceptor microbeads will generate an emission wave of 520-620 nm, which in turn can be detected a signal. In this experiment, the test system was 20 μL, and the compound needs to be diluted in buffer 1 (20 mM HEPES pH 7.4, 150 mM NaCl, 1 mM dithiothreitol). First, a solution of 20 mM compound was consecutively diluted twice, each in 10 times, totally in 100 times to a concentration of 200 μM. […] The recombinant BD1 protein solution and the acetylated histone H4 polypeptide were diluted in the buffer 2 (20 mM HEPES pH 7.4, 150 mM NaCl, 0.01% Triton X-100, 0.1% bovine serum protein (w/v, Sigma), 1 mM dithiothreitol) to 100 nM and 100 nM respectively, to obtain a 8×BD1 protein working solution and a 4× acetylated histone H4 polypeptide working solution. The donor microbeads and the acceptor microbeads are diluted together in the buffer 2, both in the ratio of 1:100, to obtain a 2× microbead mixed working solution. The plate was added with 2.5 μL of BD1 protein working solution and incubated with the compound for 20 min at room temperature, and then added with 5 μL of acetylated histone H4 polypeptide working solution and incubated at room temperature for 5 min, and finally added with 10 μL of microbead mixed working solution and incubated at room temperature for 60 min. […] IC50 values of the compounds at different concentrations for inhibiting the binding of BD1 protein to acetylated H4 polypeptide were calculated by fitting using GraphPad Prism 5.0 software.

Row | Compound | IC50
1 | Cc1cc(-c2cc(S(C)(=O)=O)ccc2Oc2ccccc2)n2cc[nH]c(=O)c12 | 134 nM
2 | CCS(=O)(=O)c1ccc(Oc2ccccc2C)c(-c2cc(C)c3c(=O)[nH]ccn23)c1 | 131 nM
3 | Cc1cc(-c2cc(NS(C)(=O)=O)ccc2OCC2CC2)n2cn[nH]c(=O)c12 | 471 nM
4 | Cc1cc(-c2cc(NS(C)(=O)=O)ccc2OC2CCOCC2)n2cn[nH]c(=O)c12 | 124 nM
5 | Cc1cc(-c2cc(NS(C)(=O)=O)ccc2Oc2ccccc2)n2nc[nH]c(=O)c12 | 434 nM
6 | Cc1cc(-c2ccccc2Oc2ccccc2)n2nc[nH]c(=O)c12 | 910 nM
7 | Cc1cc(-c2cc(CS(C)(=O)=O)ccc2Nc2ccc(F)cc2F)n2cc[nH]c(=O)c12 | 161 nM
8 | Cc1cc(-c2ccccc2Oc2ccccc2)n2cc[nH]c(=O)c12 | 905 nM
9 | Cc1cc(-c2cc(CS(C)(=O)=O)ccc2Nc2ccccc2)n2cc[nH]c(=O)c12 | 138 nM
10 | Cc1cc(-c2cc(S(C)(=O)=O)ccc2Oc2ccc(F)cc2F)n2cc[nH]c(=O)c12 | 132 nM

Molecules with a lower IC50, results first:

Row | IC50 | Compound
11 | 76.9 nM | Cc1cc(-c2cc(NS(C)(=O)=O)ccc2Oc2ccccc2)n2c1C(=O)NCC2
12 | 92.6 nM | Cc1cc(-c2cc(NS(C)(=O)=O)ccc2Oc2ccc(F)cc2F)n2cn[nH]c(=O)c12
13 | 119 nM | Cc1ccccc1Oc1ccc(NS(C)(=O)=O)cc1-c1cc(C)c2c(=O)[nH]ccn12
14 | 114 nM | Cc1cc(-c2cc(NS(C)(=O)=O)ccc2Oc2ccccc2)n2cn[nH]c(=O)c12
15 | 4.5 nM | Cc1cc(-c2cc(CS(C)(=O)=O)ccc2Oc2ccc(F)cc2F)n2cn[nH]c(=O)c12
